Data on four molecules can be found in article PMC10250385, “Pregnane X receptor agonist nomilin extends lifespan and healthspan in preclinical models through detoxification functions” (Nature Communications, 2023).

In data set [1] the target is T1, human pregnane X receptor (hPXR) (Homo sapiens, UniProt O75469).
T1 sequence (O75469 130-434 limits assumed): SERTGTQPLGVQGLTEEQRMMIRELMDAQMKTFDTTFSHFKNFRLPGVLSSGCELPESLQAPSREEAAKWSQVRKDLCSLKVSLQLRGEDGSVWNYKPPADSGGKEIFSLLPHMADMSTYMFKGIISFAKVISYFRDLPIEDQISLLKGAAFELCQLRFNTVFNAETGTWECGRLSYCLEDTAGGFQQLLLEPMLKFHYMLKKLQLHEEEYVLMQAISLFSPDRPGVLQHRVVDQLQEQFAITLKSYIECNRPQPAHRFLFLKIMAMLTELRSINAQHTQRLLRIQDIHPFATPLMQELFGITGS
The experiment in a line: TR-FRET competitive binding assay (LanthaScreen PXR); also activates hPXR in reporter assay. More on the design: gene NR1I2; hPXR-LBD-GST.

Data set [2] deals with T1, human pregnane X receptor (hPXR). Nature of the data set: biochemical. On the set-up: gene NR1I2.
Data set [3] has as its target T2, ligand-binding domain (LBD) of human pregnane X receptor (hPXR), residues 130–432 (human, UniProt O75469-1 130-432).
T2 construct: In the crystal it stood on one chain with the NCOA1 peptide, joined by the spacer SSSGGT: see m1; also called hPXR LBD; hPXR^LBD; source: Sf9 (recombinant baculovirus), purified, as part of the fusion protein m1
T2 sequence (looked up): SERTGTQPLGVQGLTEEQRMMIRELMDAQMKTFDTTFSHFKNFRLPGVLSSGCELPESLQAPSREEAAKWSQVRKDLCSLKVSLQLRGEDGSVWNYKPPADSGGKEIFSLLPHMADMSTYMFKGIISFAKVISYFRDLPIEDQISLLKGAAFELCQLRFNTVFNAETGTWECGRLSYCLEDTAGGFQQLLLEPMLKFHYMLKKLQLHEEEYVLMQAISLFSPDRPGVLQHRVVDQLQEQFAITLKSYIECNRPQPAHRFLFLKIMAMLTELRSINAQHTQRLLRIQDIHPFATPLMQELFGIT
Nature of the data set: crystal structure; hPXR^LBD-NCOA1^676–700 co-crystallised with nomilin (1 mM), sitting drop vapour diffusion at 4 °C, 10% (v/v) 2-propanol, 100 mM imidazole/HCl pH 8.0; 2.1 Å; the homodimer is also said to form in the purification (SEC in 150 mM NaCl, 20 mM HEPES, 1 mM TCEP). The note with it: both partners purified.

Data set [4] concerns the molecule itself. The data set is described as above.

With `CC1(C)OC(=O)C[C@H](O)[C@]2(C)[C@H]3CC[C@@]4(C)[C@H](c5ccoc5)OC(=O)[C@H]5O[C@]54[C@]3(C)C(=O)C[C@@H]12` [deacetylnomilin], the half-inhibitory concentration (IC50) – broadly, the concentration that gives 50% inhibition – in data set [1] worked out at 22.7 µM.

As for `CC(=O)O[C@H]1CC(=O)OC(C)(C)[C@@H]2CC(=O)[C@]3(C)[C@H](CC[C@@]4(C)[C@H](c5ccoc5)OC(=O)[C@H]5O[C@]543)[C@@]12C` [nomilin], half-maximal inhibition in data set [2] (IC50) required 5.8 µM.

B1: nuclear receptor coactivator 1 residues 676–700 (NCOA1^676–700) (peptide, UniProt Q15788-1 676-700, looked up)
peptide: CPSSHSSLTERHKILHRLLQEGSPS
notes: In the crystal it stood on one chain with the hPXR LBD, joined to its C-terminus by the spacer SSSGGT: see m1; source: Sf9 (recombinant baculovirus), purified, as part of the fusion protein m1; not shown: His6, C-terminal, cleaved
In the case of B1, the binding result in data set [3] is recorded as “binds”.

B2: hPXR^LBD-NCOA1^676–700 fusion protein (other)
chain: SERTGTQPLGVQGLTEEQRMMIRELMDAQMKTFDTTFSHFKNFRLPGVLSSGCELPESLQAPSREEAAKWSQVRKDLCSLKVSLQLRGEDGSVWNYKPPADSGGKEIFSLLPHMADMSTYMFKGIISFAKVISYFRDLPIEDQISLLKGAAFELCQLRFNTVFNAETGTWECGRLSYCLEDTAGGFQQLLLEPMLKFHYMLKKLQLHEEEYVLMQAISLFSPDRPGVLQHRVVDQLQEQFAITLKSYIECNRPQPAHRFLFLKIMAMLTELRSINAQHTQRLLRIQDIHPFATPLMQELFGITSSSGGTCPSSHSSLTERHKILHRLLQEGSPS
notes: spacer -Ser-Ser-Ser-Gly-Gly-Thr- between the hPXR LBD and the NCOA1 peptide; A TEV protease recognition site stood between the NCOA1 peptide and the His6 tag; Crystallised with nomilin in the ligand pocket; also called hPXR chimera; source: Sf9 (recombinant baculovirus), purified (Talon IMAC, TEV cleavage, second IMAC, SEC on Superdex 200 Increase); not shown: His6, C-terminal, cleaved
Consider B2, for which the stoichiometry N (commonly the number of molecules, sites or subunits per partner or assembly) in data set [4] was 2.
